Data taken from patent publication US7521478B2, “Total synthesis of myriaporones” (Pharma Mar, S.A.U., priority 2002, dated 2009).
Like-named read-outs stand apart in the source and are kept apart here.

Experiments:
Type in all cases: cell-based
HeLa = experiment: Inhibition of cell growth by colorimetric SRB assay, HELA; settings: Homo sapiens; for IC (total growth inhibition): read-out: TGI
How it was run: (§1)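 Absorbance of solubilized bound SRB (490 nm) quantified cell growth and viability after cells were exposed to compound for 48 h. Seeding was 5×10^3 cells per well in RPMI 1640/10% FBS, with 18 h attachment beforehand. GI, TGI and LC were calculated from means of triplicate wells.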

PANC-1 = experiment: Inhibition of cell growth by colorimetric SRB assay, PANC-1; settings: Homo sapiens; for IC (total growth inhibition): read-out: TGI
How it was run: as §1

DU-145 = experiment: Inhibition of cell growth by colorimetric SRB assay, DU-145; settings: Homo sapiens; for IC (total growth inhibition): read-out: TGI
How it was run: as §1

A-549 = experiment: Inhibition of cell growth by colorimetric SRB assay, A-549; settings: Homo sapiens; for IC (total growth inhibition): read-out: TGI
How it was run: as §1

IGROV = experiment: Inhibition of cell growth by colorimetric SRB assay, IGROV; settings: Homo sapiens; for IC (total growth inhibition): read-out: TGI
How it was run: as §1

HeLa-APL = experiment: Inhibition of cell growth by colorimetric SRB assay, HELA-APL; settings: Homo sapiens; for CC50: cell killing, read-out: LC50 (the source's name); for IC (total growth inhibition): read-out: TGI
How it was run: as §1

LoVo-Dox = experiment: Inhibition of cell growth by colorimetric SRB assay, LOVO-DOX; settings: Homo sapiens; for LC50 (concentration for 50% cell killing): read-out: LC50; for IC (total growth inhibition): read-out: TGI
How it was run: as §1

LoVo = experiment: Inhibition of cell growth by colorimetric SRB assay, LOVO; settings: Homo sapiens; for LC50: read-out: LC50; for IC (total growth inhibition): read-out: TGI
How it was run: as §1

SK-BR-3 = experiment: Inhibition of cell growth by colorimetric SRB assay, SK-BR-3; settings: for GI50 / CC50: Homo sapiens; for TGI: total growth inhibition
How it was run: as §1

HT-29 = experiment: Inhibition of cell growth by colorimetric SRB assay, HT-29; settings: Homo sapiens; for IC (total growth inhibition): read-out: TGI
How it was run: as §1

SK-MEL-28 = experiment: Inhibition of cell growth by colorimetric SRB assay, MEL-28; settings: Homo sapiens; for IC (total growth inhibition): read-out: TGI
How it was run: as §1

IGROV-ET = experiment: Inhibition of cell growth by colorimetric SRB assay, IGROV-ET; settings: Homo sapiens; for IC (total growth inhibition): read-out: TGI
How it was run: as §1

K-562 = experiment: Inhibition of cell growth by colorimetric SRB assay, K-562; settings: Homo sapiens; for IC (total growth inhibition): read-out: TGI
How it was run: as §1

LNCaP = experiment: Inhibition of cell growth by colorimetric SRB assay, LN-caP; settings: Homo sapiens; for IC (total growth inhibition): read-out: TGI
How it was run: as §1

[1] = HELA, 48 hours exposure, cell killing, read-out: LC50 (the source's name)
[2] = PANC-1, 48 hours exposure, cell killing, read-out: LC50 (the source's name)
[3] = DU-145, 48 hours exposure, cell killing, read-out: LC50 (the source's name)
[4] = A549, A-549, 48 hours exposure, cell killing, read-out: LC50 (the source's name)
[5] = 48 hours exposure, cell killing, read-out: LC50 (the source's name)
[6] = LOVO-DOX, 48 hours exposure, cell killing
[7] = LOVO, 48 hours exposure, cell killing
[8] = SK-BR-3, 48 hours exposure, cell killing, read-out: LC50 (the source's name)
[9] = HT-29, 48 hours exposure, cell killing, read-out: LC50 (the source's name)
[10] = SK-MEL-28, MEL-28, 48 hours exposure
[11] = SK-MEL-28, MEL-28, 48 hours exposure, cell killing, read-out: LC50 (the source's name)
[12] = IGROV-ET, 48 hours exposure, cell killing, read-out: LC50 (the source's name)
[13] = K562, K-562, 48 hours exposure, cell killing, read-out: LC50 (the source's name)
[14] = LN-caP, 48 hours exposure, cell killing, read-out: LC50 (the source's name)

C/C=C\[C@H](C)[C@H]1O[C@@]1(C)[C@@H](O)[C@@H](CO)C(=O)[C@@H](CO)[C@@H](O)CC(=O)CC [3c + 4c]
GI50 (HeLa; HELA, 48 hours exposure): 0.62 µM
CC50 (HeLa; [1]): 26.8 µM
IC (total growth inhibition) (HeLa; HELA, 48 hours exposure): 4.78 µM
GI50 (PANC-1; PANC-1, 48 hours exposure): 1.03 µM
CC50 (PANC-1; [2]): 26.8 µM
IC (total growth inhibition) (PANC-1; PANC-1, 48 hours exposure): 13.3 µM
GI50 (DU-145; DU-145, 48 hours exposure): 0.55 µM
CC50 (DU-145; [3]): 26.8 µM
IC (total growth inhibition) (DU-145; DU-145, 48 hours exposure): 4.16 µM
GI50 (A-549; A549, A-549, 48 hours exposure): 0.913 µM
CC50 (A-549; [4]): 26.8 µM
IC (total growth inhibition) (A-549; A549, A-549, 48 hours exposure): 13.4 µM
GI50 (IGROV; 48 hours exposure): 0.553 µM
CC50 (IGROV; [5]): 20.9 µM
IC (total growth inhibition) (IGROV; 48 hours exposure): 3.57 µM
CC50 (HeLa-APL; HELA-APL, 48 hours exposure): 26.8 µM
GI50 (HeLa-APL; HELA-APL, 48 hours exposure, read-out: GI50): 0.593 µM
IC (total growth inhibition) (HeLa-APL; HELA-APL, 48 hours exposure, total growth inhibition): 8.67 µM
GI50 (LoVo-Dox; LOVO-DOX, 48 hours exposure): 0.846 µM
LC50 (concentration for 50% cell killing) (LoVo-Dox; [6]): 26.8 µM
IC (total growth inhibition) (LoVo-Dox; LOVO-DOX, 48 hours exposure): 6.18 µM
GI50 (LoVo; LOVO, 48 hours exposure): 0.714 µM
LC50 (LoVo; [7]): 26.8 µM
IC (total growth inhibition) (LoVo; LOVO, 48 hours exposure): 7.01 µM
GI50 (SK-BR-3; SK-BR-3, 48 hours exposure): 1.16 µM
CC50 (SK-BR-3; [8]): 26.8 µM
TGI (SK-BR-3; SK-BR-3, 48 hours exposure): 6.07E−06 Molar
GI50 (HT-29; HT-29, 48 hours exposure): 0.564 µM
CC50 (HT-29; [9]): 26.8 µM
IC (total growth inhibition) (HT-29; HT-29, 48 hours exposure): 6.69 µM
GI50 (SK-MEL-28; [10]): 0.634 µM
CC50 (SK-MEL-28; [11]): 26.8 µM
IC (total growth inhibition) (SK-MEL-28; [10]): 7.25 µM
GI50 (IGROV-ET; IGROV-ET, 48 hours exposure): 0.703 µM
CC50 (IGROV-ET; [12]): 26.8 µM
IC (total growth inhibition) (IGROV-ET; IGROV-ET, 48 hours exposure): 6.95 µM
GI50 (K-562; K562, K-562, 48 hours exposure): 4.59 µM
CC50 (K-562; [13]): 26.8 µM
IC (total growth inhibition) (K-562; K562, K-562, 48 hours exposure): 11.9 µM
GI50 (LNCaP; LN-caP, 48 hours exposure): 0.703 µM
CC50 (LNCaP; [14]): 26.8 µM
IC (total growth inhibition) (LNCaP; LN-caP, 48 hours exposure): 4.56 µM

C=C(C(=O)[C@H](COC(C)=O)[C@H](O)C1(C)O[C@@H]1[C@@H](C)/C=C\C)[C@@H](O)CC(=O)CC (stereo partly drawn) [Compound 1]
CC50 (HeLa; HeLa, 48 h, read-out: LC50): 20.5 µM
GI50 (HeLa; HELA, 48 hours exposure): 1.99 µM
IC (total growth inhibition) (HeLa; HELA, 48 hours exposure): 6.66 µM
CC50 (PANC-1; PANC-1, 48 h, read-out: LC50): 21.3 µM
GI50 (PANC-1; PANC-1, 48 hours exposure): 3.33 µM
IC (total growth inhibition) (PANC-1; PANC-1, 48 hours exposure): 8.4 µM
CC50 (DU-145; DU-145, 48 h, read-out: LC50): ≥ 25.2 µM
GI50 (DU-145; DU-145, 48 hours exposure): 3.66 µM
IC (total growth inhibition) (DU-145; DU-145, 48 hours exposure): 10.2 µM
CC50 (A-549; A549, 48 h, read-out: LC50): 23.5 µM
GI50 (A-549; A549, A-549, 48 hours exposure): 1.1 µM
IC (total growth inhibition) (A-549; A549, A-549, 48 hours exposure): 5.04 µM
CC50 (IGROV; 48 h, read-out: LC50): 17.6 µM
GI50 (IGROV; 48 hours exposure): 1.63 µM
IC (total growth inhibition) (IGROV; 48 hours exposure): 5.67 µM
GI50 (HeLa-APL; 48 h): 1.72 µM
IC (total growth inhibition) (HeLa-APL; 48 h): 6.23 µM
LC50 (concentration for 50% cell killing) (LoVo-Dox; 48 h): 21.1 µM
GI50 (LoVo-Dox; LOVO-DOX, 48 hours exposure): 3.13 µM
IC (total growth inhibition) (LoVo-Dox; LOVO-DOX, 48 hours exposure): 8.1 µM
LC50 (LoVo; LoVo, 48 h): 12.6 µM
GI50 (LoVo; LOVO, 48 hours exposure): 1.62 µM
IC (total growth inhibition) (LoVo; LOVO, 48 hours exposure): 4.87 µM
CC50 (SK-BR-3; SK-BR-3, 48 h, read-out: LC50): 3.43 µM
GI50 (SK-BR-3; SK-BR-3, 48 hours exposure): 0.469 µM
TGI (SK-BR-3; SK-BR-3, 48 hours exposure): 1.11E−05 Molar
CC50 (HT-29; HT-29, 48 h, read-out: LC50): 13.4 µM
GI50 (HT-29; HT-29, 48 hours exposure): 1.67 µM
IC (total growth inhibition) (HT-29; HT-29, 48 hours exposure): 5.37 µM
CC50 (SK-MEL-28; SK-MEL-28, 48 h, read-out: LC50): 13.6 µM
GI50 (SK-MEL-28; [10]): 2.72 µM
IC (total growth inhibition) (SK-MEL-28; [10]): 6.1 µM
CC50 (IGROV-ET; 48 h, read-out: LC50): 23.7 µM
GI50 (IGROV-ET; IGROV-ET, 48 hours exposure): 3.1 µM
IC (total growth inhibition) (IGROV-ET; IGROV-ET, 48 hours exposure): 8.58 µM
CC50 (K-562; K562, 48 h, read-out: LC50): 24.6 µM
GI50 (K-562; K562, K-562, 48 hours exposure): 1.99 µM
IC (total growth inhibition) (K-562; K562, K-562, 48 hours exposure): 7.36 µM
CC50 (LNCaP; 48 h, read-out: LC50): ≥ 25.2 µM
GI50 (LNCaP; LN-caP, 48 hours exposure): 1.45 µM
IC (total growth inhibition) (LNCaP; LN-caP, 48 hours exposure): 6.31 µM

C/C=C\[C@H](C)[C@H]1OC1(C)[C@@H](O[Si](C)(C)C(C)(C)C)[C@@H](CO[Si](C)(C)C(C)(C)C)C(=O)[C@H](CO[Si](C)(C)C(C)(C)C)[C@@H](CC(=O)CC)O[Si](C)(C)C(C)(C)C (stereo partly drawn) [Compound 19b]
GI50 (HeLa; HELA, 48 hours exposure): 12 µM
CC50 (HeLa; [1]): 12 µM
IC (total growth inhibition) (HeLa; HELA, 48 hours exposure): 12 µM
GI50 (PANC-1; PANC-1, 48 hours exposure): 12 µM
CC50 (PANC-1; [2]): 12 µM
IC (total growth inhibition) (PANC-1; PANC-1, 48 hours exposure): 12 µM
GI50 (DU-145; DU-145, 48 hours exposure): 12 µM
CC50 (DU-145; [3]): 12 µM
IC (total growth inhibition) (DU-145; DU-145, 48 hours exposure): 12 µM
GI50 (A-549; A549, A-549, 48 hours exposure): 12 µM
CC50 (A-549; [4]): 12 µM
IC (total growth inhibition) (A-549; A549, A-549, 48 hours exposure): 12 µM
GI50 (IGROV; 48 hours exposure): 12 µM
CC50 (IGROV; [5]): 12 µM
IC (total growth inhibition) (IGROV; 48 hours exposure): 12 µM
CC50 (HeLa-APL; HELA-APL, 48 hours exposure): 12 µM
GI50 (LoVo-Dox; LOVO-DOX, 48 hours exposure): 12 µM
LC50 (concentration for 50% cell killing) (LoVo-Dox; [6]): 12 µM
IC (total growth inhibition) (LoVo-Dox; LOVO-DOX, 48 hours exposure): 12 µM
GI50 (LoVo; LOVO, 48 hours exposure): 12 µM
LC50 (LoVo; [7]): 12 µM
IC (total growth inhibition) (LoVo; LOVO, 48 hours exposure): 12 µM
GI50 (SK-BR-3; SK-BR-3, 48 hours exposure): 6.15 µM
CC50 (SK-BR-3; [8]): 12 µM
TGI (SK-BR-3; SK-BR-3, 48 hours exposure): 1.17E−05 Molar
GI50 (HT-29; HT-29, 48 hours exposure): 12 µM
CC50 (HT-29; [9]): 12 µM
IC (total growth inhibition) (HT-29; HT-29, 48 hours exposure): 12 µM
GI50 (SK-MEL-28; [10]): 12 µM
CC50 (SK-MEL-28; [11]): 12 µM
IC (total growth inhibition) (SK-MEL-28; [10]): 12 µM
GI50 (IGROV-ET; IGROV-ET, 48 hours exposure): 12 µM
CC50 (IGROV-ET; [12]): 12 µM
IC (total growth inhibition) (IGROV-ET; IGROV-ET, 48 hours exposure): 12 µM
GI50 (K-562; K562, K-562, 48 hours exposure): 12 µM
CC50 (K-562; [13]): 12 µM
IC (total growth inhibition) (K-562; K562, K-562, 48 hours exposure): 12 µM
GI50 (LNCaP; LN-caP, 48 hours exposure): 12 µM
CC50 (LNCaP; [14]): 12 µM
IC (total growth inhibition) (LNCaP; LN-caP, 48 hours exposure): 12 µM
